# In US9938258B2 (Karyopharm Therapeutics Inc., priority 2012, dated 2018):
# Like-named read-outs stand apart in the source and are kept apart here.
# Key:
# [1] = test system: MS751 cells; test: MTT cell proliferation assay, MS751; format: cell-based, human; settings: read-out: MTT Assay IC50, MS751
# Method in brief: (§1)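 Cells were seeded at 5,000-10,000 per well, left to attach overnight, then exposed to eight compound concentrations from 1 nM to 30 μM. After about 4 h with MTT, solubilized formazan was read at 490 nm and percent inhibition versus negative control was calculated.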
# [2] = test system: Z138 cells; test: MTT cell proliferation assay, Z138; format: cell-based; settings: read-out: MTT Assay IC50, Z138
# Method in brief: as §1
# [3] = test system: 3T3 cells; test: MTT cell proliferation assay, 3T3; format: cell-based, mouse; settings: read-out: MTT Assay IC50, 3T3
# Method in brief: as §1
# [4] = Homo sapiens, MS751, MS751 cells, eight concentrations 1 nM to 30 μM, incubation approximately 64-72 hours
# [5] = Homo sapiens, Z-138, Z138 cells, eight concentrations 1 nM to 30 μM, incubation approximately 64-72 hours
# [6] = Mus musculus, NIH3T3, 3T3 cells, eight concentrations 1 nM to 30 μM, incubation approximately 64-72 hours
# [7] = Homo sapiens, MS751, MS751 cells, approximately 64-72 hours incubation
# [8] = Homo sapiens, Z-138, Z138 cells, approximately 64-72 hours incubation
# [9] = Mus musculus, NIH3T3, 3T3 cells, approximately 64-72 hours incubation
Compound,"IC50 [1, 4]","IC50 [2, 5]","IC50 [3, 6]","IC50 [1, 7]","IC50 [2, 8]","IC50 [3, 9]",also measured
"O=C(/C=C/c1cccnc1)NCC1Cc2cc(-c3cc(C(F)(F)F)cc(C(F)(F)F)c3)cc(Cl)c2O1 (stereo not drawn) [Compound 49, (E)-N-((5-(3,5-bis(trifluoromethyl)phenyl)-7-chloro-2,3-dihydrobenzofuran-2-yl)methyl)-3-(pyridin-3-yl)acrylamide]",0.1 to 5 µM,0.1 to 5 µM,0.1 to 5 µM,,,,
"CC(=O)c1ccc(-c2cc(Cl)c3c(c2)CC(CNC(=O)/C=C(/C)c2cccnc2)O3)s1 (stereo not drawn) [Compound 282, (Z)-N-((5-(5-Acetylthiophen-2-yl)-7-chloro-2,3-dihydrobenzofuran-2-yl)methyl)-3-(pyridin-3-yl)but-2-enamide]",,,,0.1 to 5 µM,0.1 to 5 µM,> 30 µM,
"O=C(/C=C/c1cccnc1)NCC1Cc2cc(-c3ccc(C(=O)O)cc3)cc(Cl)c2O1 (stereo not drawn) [Compound 129, (E)-4-(7-chloro-2-((3-(pyridin-3-yl)acrylamido)methyl)-2,3-dihydrobenzofuran-5-yl)benzoic acid]",5 to 30 µM,5 to 30 µM,5 to 30 µM,,,,
"CC(=O)c1ccc(-c2cc(Cl)c3c(c2)CC(CNC(=O)/C=C/c2ccc(N(C)C)nc2)O3)s1 (stereo not drawn) [Compound 295, (E)-N-((5-(5-acetylthiophen-2-yl)-7-chloro-2,3-dihydrobenzofuran-2-yl)methyl)-3-(6-(dimethylamino)pyridin-3-yl)acrylamide]",,,,> 30 µM,> 30 µM,> 30 µM,
"CC(=O)c1ccc(-c2cc(Cl)c3c(c2)CC(CNC(=O)/C=C/c2sccc2Cl)O3)s1 (stereo not drawn) [Compound 163, (E)-N-((5-(5-acetylthiophen-2-yl)-7-chloro-2,3-dihydrobenzofuran-2-yl)methyl)-3-(3-chlorothiophen-2-yl)acrylamide]",> 30 µM,> 30 µM,> 30 µM,,,,
"CC(=O)c1ccc(-c2cc(Cl)c3c(c2)CC(CNC(=O)/C=C/c2cccnc2)O3)s1 (stereo not drawn) [Compound 122, (E)-N-((5-(5-acetylthiophen-2-yl)-7-chloro-2,3-dihydrobenzofuran-2-yl)methyl)-3-(pyridin-3-yl)acrylamide]",,,,,,,"IC50 ([1]; MS751 cells, eight concentrations 1 nM to 30 μM, incubation approximately 64-72 hours): 0.1 to 5 µM; IC50 ([2]; Z138 cells, eight concentrations 1 nM to 30 μM, incubation approximately 64-72 hours): 0.1 to 5 µM; IC50 ([3]; 3T3 cells, eight concentrations 1 nM to 30 μM, incubation approximately 64-72 hours): 0.1 to 5 µM"
"Nc1ccc(/C=C/C(=O)NCC2Cc3cc(-c4ccc(C(=O)N5CCOCC5)cc4)cc(O)c3O2)cn1 (stereo not drawn) [Compound 347, (E)-3-(6-aminopyridin-3-yl)-N-((7-hydroxy-5-(4-(morpholine-4-carbonyl)phenyl)-2,3-dihydrobenzofuran-2-yl)methyl)acrylamide]",,,,0.1 to 5 µM,> 30 µM,0.1 to 5 µM,
"O=C(/C=C/c1cccnc1)NCC1Cc2cc(-c3ccccc3)cc(Cl)c2O1 (stereo not drawn) [Compound 67, (E)-N-((7-chloro-5-phenyl-2,3-dihydrobenzofuran-2-yl)methyl)-3-(pyridin-3-yl)acrylamide]",0.1 to 5 µM,0.1 to 5 µM,5 to 30 µM,,,,
"CC(=O)c1ccc(-c2cc(Cl)c3c(c2)CC(CNC(=O)/C=C/c2nc4ccccc4s2)O3)s1 (stereo not drawn) [Compound 190, (E)-N-((5-(5-acetylthiophen-2-yl)-7-chloro-2,3-dihydrobenzofuran-2-yl)methyl)-3-(benzo[d]thiazol-2-yl)acrylamide]",> 30 µM,> 30 µM,> 30 µM,,,,
"CC(=O)c1ccc(-c2cc(Cl)c3c(c2)CC(CNC(=O)/C=C/c2cc4cnn(C(C)C)c4[nH]c2=O)O3)s1 (stereo not drawn) [Compound 289, (E)-N-((5-(5-acetylthiophen-2-yl)-7-chloro-2,3-dihydrobenzofuran-2-yl)methyl)-3-(1-isopropyl-6-oxo-6,7-dihydro-1H-pyrazolo[3,4-b]pyridin-5-yl)acrylamide]",,,,5 to 30 µM,0.1 to 5 µM,> 30 µM,
"CC(=O)c1ccc(-c2cc(Cl)c3c(c2)CC(CNC(=O)/C=C/c2ccnnc2)O3)s1 (stereo not drawn) [Compound 273, (E)-N-((5-(5-acetylthiophen-2-yl)-7-chloro-2,3-dihydrobenzofuran-2-yl)methyl)-3-(pyridazin-4-yl)acrylamide]",> 30 µM,5 to 30 µM,> 30 µM,,,,
"Nc1ccc(/C=C/C(=O)NCC2Cc3cc(-c4ccc(C(=O)N5CCCCC5)cc4)cc(Cl)c3O2)cn1 (stereo not drawn) [Compound 234, (E)-3-(6-aminopyridin-3-yl)-N-((7-chloro-5-(4-(piperidine-1-carbonyl)phenyl)-2,3-dihydrobenzofuran-2-yl)methyl)acrylamide]",,,,< 0.1 µM,< 0.1 µM,5 to 30 µM,
"Cc1cc(-c2cc(Cl)c3c(c2)CC(CNC(=O)/C=C/c2ccc(N)nc2)O3)ccc1C(=O)N1CCOCC1 (stereo not drawn) [Compound 238, (E)-3-(6-aminopyridin-3-yl)-N-((7-chloro-5-(3-methyl-4-(morpholine-4-carbonyl)phenyl)-2,3-dihydrobenzofuran-2-yl)methyl)acrylamide]",,,,< 0.1 µM,< 0.1 µM,0.1 to 5 µM,
"CC(=O)c1ccc(-c2cc(Cl)c3c(c2)CC(CNC(=O)/C=C/c2c(C)nc4sc(C)cn24)O3)s1 (stereo not drawn) [Compound 161, (E)-N-((5-(5-acetylthiophen-2-yl)-7-chloro-2,3-dihydrobenzofuran-2-yl)methyl)-3-(2,6-dimethylimidazo[2,1-b]thiazol-5-yl)acrylamide]",> 30 µM,> 30 µM,> 30 µM,,,,
"CC(=O)c1ccc(-c2cc(Cl)c3c(c2)CC(CNC(=O)/C=C/c2ccc(N)nc2C)O3)s1 (stereo not drawn) [Compound 118, (E)-N-((5-(5-acetylthiophen-2-yl)-7-chloro-2,3-dihydrobenzofuran-2-yl)methyl)-3-(6-amino-2-methylpyridin-3-yl)acrylamide]",5 to 30 µM,0.1 to 5 µM,5 to 30 µM,,,,
CC(=O)c1sc(-c2cc(Cl)c3c(c2)CC(CNC(=O)/C=C/c2ccc(N)nc2)O3)c(C)c1C (stereo not drawn) [Compound 322],,,,< 0.1 µM,< 0.1 µM,5 to 30 µM,
"Nc1ccc(/C=C/C(=O)NCC2Cc3c(-c4cccc(C(=O)N5CCOCC5)c4)ccc(Cl)c3O2)cn1 (stereo not drawn) [Compound 915, (E)-3-(6-aminopyridin-3-yl)-N-((7-chloro-4-(3-(morpholine-4-carbonyl)phenyl)-2,3-dihydrobenzofuran-2-yl)methyl)acrylamide]",,,,< 0.1 µM,< 0.1 µM,0.1 to 5 µM,
"CC(=O)c1ccc(-c2cc(Cl)c3c(c2)CC(CNC(=O)/C=C/c2[nH]cnc2C)O3)s1 (stereo not drawn) [Compound 212, (E)-N-((5-(5-acetylthiophen-2-yl)-7-chloro-2,3-dihydrobenzofuran-2-yl)methyl)-3-(4-methyl-1H-imidazol-5-yl)acrylamide]",,,,5 to 30 µM,5 to 30 µM,> 30 µM,
"CC(C)(O)c1ccc(-c2cc(Cl)c3c(c2)CC(CNC(=O)/C=C/c2cccnc2)O3)s1 (stereo not drawn) [Compound 304, (E)-N-((7-chloro-5-(5-(2-hydroxypropan-2-yl)thiophen-2-yl)-2,3-dihydrobenzofuran-2-yl)methyl)-3-(pyridine-3-yl)acrylamide]",,,,< 0.1 µM,< 0.1 µM,0.1 to 5 µM,
"O=C(/C=C/c1cccnn1)NCC1Cc2cc(-c3ccc(C(=O)N4CCOCC4)cc3)cc(Cl)c2O1 (stereo not drawn) [Compound 236, (E)-N-((7-chloro-5-(4-(morpholine-4-carbonyl)phenyl)-2,3-dihydrobenzofuran-2-yl)methyl)-3-(pyridazin-3-yl)acrylamide]",,,,0.1 to 5 µM,0.1 to 5 µM,0.1 to 5 µM,
"Nc1ccc(/C=C/C(=O)NCC2Cc3cc(-c4cc(F)c(C(=O)N5CC(F)(F)C5)c(F)c4)cc(Cl)c3O2)cn1 (stereo not drawn) [Compound 335, (E)-3-(6-aminopyridin-3-yl)-N-((7-chloro-5-(4-(3,3-difluoroazetidine-1-carbonyl)-3,5-difluorophenyl)-2,3-dihydrobenzofuran-2-yl)methyl)acrylamide]",,,,< 0.1 µM,< 0.1 µM,0.1 to 5 µM,
"Nc1ccc(/C=C/C(=O)NCC2Cc3cc(-c4ccc(C(=O)N5CCOCC5)nc4)cc(Cl)c3O2)cn1 (stereo not drawn) [Compound 248, (E)-3-(6-aminopyridin-3-yl)-N-((7-chloro-5-(6-(morpholine-4-carbonyl)pyridin-3-yl)-2,3-dihydrobenzofuran-2-yl)methyl)acrylamide]",,,,0.1 to 5 µM,< 0.1 µM,> 30 µM,
"CC(=O)c1ccc(-c2cc(Cl)c3c(c2)CC(CNC(=O)/C=C\c2cccnc2)O3)s1 (single isomer, unassigned) [Compound 312, (Z)-N-((5-(5-acetylthiophen-2-yl)-7-chloro-2,3-dihydrobenzofuran-2-yl)methyl)-3-(pyridin-3-yl)acrylamide]",,,,,0.1 to 5 µM,,"IC50 ([1]; MS751 cells, approximately 64-72 hours incubation): 5 to 30 µM; IC50 ([3]; 3T3 cells, approximately 64-72 hours incubation): 5 to 30 µM"
"CC(=O)c1ccc(-c2cc(Cl)c3c(c2)CC(CNC(=O)/C=C/c2cc[nH]c2)O3)s1 (stereo not drawn) [Compound 153, (E)-N-((5-(5-acetylthiophen-2-yl)-7-chloro-2,3-dihydrobenzofuran-2-yl)methyl)-3-(1H-pyrrol-3-yl)acrylamide]",> 30 µM,> 30 µM,> 30 µM,,,,
